From US12227511B2, “Bicyclic compounds as kinase modulators, methods and uses thereof” (Agency for Science, Technology and Research, priority 2018, dated 2025)

Test system: HCCLM3 cells
Assay: GI50 in HCCLM3 cells, cell viability by MTS assay
Format: cell-based
Settings: Homo sapiens, 72 hours incubation, triplicates, read-out: HCCLM3 activity range (GI50)
Protocol: To investigate the effects of compounds on hepatocellular carcinoma (HCC) cell viability, HCCLM3 cells (HCC cells with high metastatic potential) were incubated with increasing concentrations of test compounds for 72 hours. Cell viability was evaluated at the end of incubation period by MTS assay. […] All samples were evaluated in triplicates.
As set forth in Table 1 below, GI50 values are defined as follows: GI50≤10 μM (+++); GI50>10 μM and ≤20 μM (++); GI50>20 μM (+).

COc1cc2nccc(Oc3ccc(NC(=O)C4(C(=O)N5CC6CC6C5)CC4)cc3)c2cc1OC (centres unmarked) [Compound 27, 1-(3-azabicyclo[3.1.0]hexane-3-carbonyl)-N-(4-((6,7-dimethoxyquinolin-4-yl)oxy)phenyl)cyclopropane-1-carboxamide]
GI50: > 20 µM

COc1cc2nccc(Oc3ccc(NC(=O)C4(C(=O)NC56CC(C(N)=O)(C5)C6)CC4)cc3)c2cc1OC [Compound 7, N-(3-carbamoylbicyclo[1.1.1]pentan-1-yl)-N-(4-((6,7-dimethoxyquinolin-4-yl)oxy)phenyl)cyclopropane-1,1-dicarboxamide]
GI50: > 20 µM

COc1cc2nccc(Oc3ccc(NC(=O)C4(C(=O)N5C[C@@H]6COC[C@@H](C6)C5)CC4)cc3)c2cc1OC [Compound 20, 1-((1R,5S)-3-oxa-7-azabicyclo[3.3.1]nonane-7-carbonyl)-N-(4-((6,7-dimethoxyquinolin-4-yl)oxy)phenyl)cyclopropane-1-carboxamide]
GI50: > 20 µM

COc1cc2nccc(Oc3ccc(NC(=O)C45CC(C(=O)NC67CC(F)(C6)C7)(C4)C5)cc3)c2cc1OC [Compound 3, N^1-(4-((6,7-dimethoxyquinolin-4-yl)oxy)phenyl)-N3-(3-fluorobicyclo[1.1.1]pentan-1-yl)bicyclo[1.1.1]pentane-1,3-dicarboxamide]
GI50: > 20 µM

COc1cc2nccc(Oc3ccc(NC(=O)C4(C(=O)NC56CC(NC(C)=O)(C5)C6)CC4)cc3)c2cc1OC [Compound 13, N-(3-acetamidobicyclo[1.1.1]pentan-1-yl)-N-(4-((6,7-dimethoxyquinolin-4-yl)oxy)phenyl)cyclopropane-1,1-dicarboxamide]
GI50: > 20 µM

COc1cc2nccc(Oc3ccc(NC(=O)C4(C(=O)NC56CC(C)(C5)C6)CC4)cc3)c2cc1OC [Compound 10, N-(4-((6,7-dimethoxyquinolin-4-yl)oxy)phenyl)-N-(3-methylbicyclo[1.1.1]pentan-1-yl)cyclopropane-1,1-dicarboxamide]
GI50: ≤ 10 µM

COc1cc2nccc(Oc3ccc(NC(=O)C45CC(C(=O)N6CC7CC7C6)(C4)C5)cc3)c2cc1OC (centres unmarked) [Compound 35, 3-(3-azabicyclo[3.1.0]hexane-3-carbonyl)-N-(4-((6,7-dimethoxyquinolin-4-yl)oxy)phenyl)bicyclo[1.1.1]pentane-1-carboxamide]
GI50: > 20 µM

COc1cc2nccc(Oc3ccc(NC(=O)C4(C(=O)N5[C@@H]6CC[C@H]5C[C@H](C#N)C6)CC4)cc3)c2cc1OC [Compound 21, EXO-1-(3-cyano-8-azabicyclo[3.2.1]octane-8-carbonyl)-N-(4-((6,7-dimethoxyquinolin-4-yl)oxy)phenyl)cyclopropane-1-carboxamide]
GI50: > 20 µM

CCOC(=O)[C@@H]1C2CCC(CC2)[C@H]1NC(=O)C1(C(=O)Nc2ccc(Oc3ccnc4cc(OC)c(OC)cc34)cc2)CC1 [Compound 16, ethyl (2R,3R)-3-(1-((4-((6,7-dimethoxyquinolin-4-yl)oxy)phenyl)carbamoyl)cyclopropane-1-carboxamido)bicyclo[2.2.2]octane-2-carboxylate]
GI50: > 20 µM

COc1cc2nccc(Oc3ccc(NC(=O)C4(C(=O)NC56CCC(CC5)CC6)CC4)cc3)c2cc1OC [Compound 24, N-(bicyclo[2.2.2]octan-1-yl)-N-(4-((6,7-dimethoxyquinolin-4-yl)oxy)phenyl)cyclopropane-1,1-dicarboxamide]
GI50: 10 to 20 µM

COc1cc2nccc(Oc3ccc(NC(=O)C4(C(=O)NC56CCC(CC5)C6)CC4)cc3)c2cc1OC [Compound 25, N-((1s,4s)-bicyclo[2.2.1]heptan-1-yl)-N-(4-((6,7-dimethoxyquinolin-4-yl)oxy)phenyl)cyclopropane-1,1-dicarboxamide]
GI50: ≤ 10 µM

COc1cc2nccc(Oc3ccc(NC(=O)C4(C(=O)N5C[C@@H]6[C@H](C5)[C@H]6C(N)=O)CC4)cc3)c2cc1OC [Compound 22, EXO-3-(1-((4-((6,7-dimethoxyquinolin-4-yl)oxy)phenyl)carbamoyl)cyclopropane-1-carbonyl)-3-azabicyclo[3.1.0]hexane-6-carboxamide]
GI50: > 20 µM

COc1cc2nccc(Oc3ccc(NC(=O)C4(C(=O)NC56CC(C5)C6)CC4)cc3)c2cc1OC [Compound 1, N-(bicyclo[1.1.1]pentan-1-yl)-N-(4-(6,7-dimethoxyquinolin-4-yloxy)phenyl)cyclopropane-1,1-dicarboxamide]
GI50: ≤ 10 µM

COc1cc2nccc(Oc3ccc(NC(=O)C4(C(=O)NC56CC(C(=O)N(C)C)(C5)C6)CC4)cc3)c2cc1OC [Compound 8, N-(4-((6,7-dimethoxyquinolin-4-yl)oxy)phenyl)-N-(3-(dimethylcarbamoyl)bicyclo[1.1.1]pentan-1-yl)cyclopropane-1,1-dicarboxamide]
GI50: > 20 µM

COc1cc2nccc(Oc3ccc(NC(=O)C4(C(=O)N5[C@@H]6CC[C@H]5C[C@@H](OC)C6)CC4)cc3)c2cc1OC [Compound 19, N-(4-((6,7-dimethoxyquinolin-4-yl)oxy)phenyl)-1-((1R,3r,5S)-3-methoxy-8-azabicyclo[3.2.1]octane-8-carbonyl)cyclopropane-1-carboxamide]
GI50: > 20 µM

COc1cc2nccc(Oc3ccc(NC(=O)C4(C(=O)NC56CC5CN(C(C)=O)C6)CC4)cc3)c2cc1OC (centres unmarked) [Compound 18, N-(3-acetyl-3-azabicyclo[3.1.0]hexan-1-yl)-N-(4-((6,7-dimethoxyquinolin-4-yl)oxy)phenyl)cyclopropane-1,1-dicarboxamide]
GI50: > 20 µM

COCC12CC(NC(=O)C3(C(=O)Nc4ccc(Oc5ccnc6cc(OC)c(OC)cc56)cc4)CC3)(C1)C2 [Compound 30, N-(4-((6,7-dimethoxyquinolin-4-yl)oxy)phenyl)-N-(3-(methoxymethyl)bicyclo[1.1.1]pentan-1-yl)cyclopropane-1,1-dicarboxamide]
GI50: 10 to 20 µM

COC(=O)C12CC(NC(=O)C3(C(=O)Nc4ccc(Oc5ccnc6cc(OC)c(OC)cc56)cc4)CC3)(C1)C2 [Compound 31, methyl 3-(1-((4-((6,7-dimethoxyquinolin-4-yl)oxy)phenyl)carbamoyl)cyclopropane-1-carboxamido)bicyclo[1.1.1]pentane-1-carboxylate]
GI50: ≤ 10 µM

COc1cc2nccc(Oc3ccc(NC(=O)C4(C(=O)NC56CC(O)(C5)C6)CC4)cc3)c2cc1OC [Compound 6, N-(4-((6,7-dimethoxyquinolin-4-yl)oxy)phenyl)-N-(3-hydroxybicyclo[1.1.1]pentan-1-yl)cyclopropane-1,1-dicarboxamide]
GI50: > 20 µM

COc1cc2nccc(Oc3ccc(NC(=O)C4(C(=O)NC56CC(OC(=O)c7ccccc7)(C5)C6)CC4)cc3)c2cc1OC [Compound 5, 3-(1-((4-((6,7-dimethoxyquinolin-4-yl)oxy)phenyl)carbamoyl)cyclopropane-1-carboxamido)bicyclo[1.1.1]pentan-1-yl benzoate]
GI50: > 20 µM

COC(=O)C12CCC(NC(=O)C3(C(=O)Nc4ccc(Oc5ccnc6cc(OC)c(OC)cc56)cc4)CC3)(CC1)CC2 [Compound 15, methyl 4-(1-((4-((6,7-dimethoxyquinolin-4-yl)oxy)phenyl)carbamoyl)cyclopropane-1-carboxamido)bicyclo[2.2.2]octane-1-carboxylate]
GI50: > 20 µM

COc1cc2nccc(Oc3ccc(NC(=O)C4(C(=O)NC56CC(c7ccccc7)(C5)C6)CC4)cc3)c2cc1OC [Compound 2, N-(4-((6,7-dimethoxyquinolin-4-yl)oxy)phenyl)-N-(3-phenylbicyclo[1.1.1]pentan-1-yl)cyclopropane-1,1-dicarboxamide]
GI50: > 20 µM

COc1cc2nccc(Oc3ccc(NC(=O)C4(C(=O)NC56CC(c7cnccn7)(C5)C6)CC4)cc3)c2cc1OC [Compound 9, N-(4-((6,7-dimethoxyquinolin-4-yl)oxy)phenyl)-N-(3-(pyrazin-2-yl)bicyclo[1.1.1]pentan-1-yl)cyclopropane-1,1-dicarboxamide]
GI50: > 20 µM

COc1cc2nccc(Oc3ccc(NC(=O)C4(C(=O)NC56CC(C#N)(C5)C6)CC4)cc3)c2cc1OC [Compound 33, N-(3-cyanobicyclo[1.1.1]pentan-1-yl)-N-(4-((6,7-dimethoxyquinolin-4-yl)oxy)phenyl)cyclopropane-1,1-dicarboxamide]
GI50: 10 to 20 µM

COc1cc2nccc(Oc3ccc(NC(=O)C4(C(=O)NC5C[C@H]6CC[C@@H](C5)N6C)CC4)cc3)c2cc1OC (stereo partly drawn) [Compound 23, ENDO-N-(4-((6,7-dimethoxyquinolin-4-yl)oxy)phenyl)-N-((1R,3r,5S)-8-methyl-8-azabicyclo[3.2.1]octan-3-yl)cyclopropane-1,1-dicarboxamide]
GI50: > 20 µM

COc1cc2nccc(Oc3ccc(NC(=O)C45CC(C(=O)NC6CC6)(C4)C5)cc3)c2cc1OC [Compound 36, N1-cyclopropyl-N3-(4-((6,7-dimethoxyquinolin-4-yl)oxy)phenyl)bicyclo[1.1.1]pentane-1,3-dicarboxamide]
GI50: > 20 µM

COc1cc2nccc(Oc3ccc(NC(=O)C4(C(=O)NC56CNCC5C6)CC4)cc3)c2cc1OC (centres unmarked) [Compound 17, N-(3-azabicyclo[3.1.0]hexan-1-yl)-N-(4-((6,7-dimethoxyquinolin-4-yl)oxy)phenyl)cyclopropane-1,1-dicarboxamide]
GI50: > 20 µM

COc1cc2nccc(Oc3ccc(NC(=O)C4(C(=O)NC56CC(F)(C5)C6)CC4)cc3)c2cc1OC [Compound 4, N-(4-((6,7-dimethoxyquinolin-4-yl)oxy)phenyl)-N-(3-fluorobicyclo[1.1.1]pentan-1-yl)cyclopropane-1,1-dicarboxamide]
GI50: ≤ 10 µM

COc1cc2nccc(Oc3ccc(NC(=O)C4(C(=O)NC56CC(N)(C5)C6)CC4)cc3)c2cc1OC [Compound 12, N-(3-aminobicyclo[1.1.1]pentan-1-yl)-N-(4-((6,7-dimethoxyquinolin-4-yl)oxy)phenyl)cyclopropane-1,1-dicarboxamide]
GI50: > 20 µM
